This is an account of results in patent US7767240B2, “Microbiological control in poultry processing” (priority 2001, dated 2010).

The test system of assay [1] is Escherichia coli field strain. The assay can be described thus: Chill water bacteria reduction (Example 2). In kind it is cell-based. Here is the method:
The trial events and experimental design used were as follows: • a) For all treatments a total of 190 birds were processed in a normal fashion. Each treatment involved use of 10 birds. • b) A warm (100° F.) bath was prepared containing 5×10^4 DelMarVa (Delaware-Maryland farm area) field Escherichia coli stain bacteria per mL. At least 200 mL of total bath fluid was provided for each bird. • c) All birds (both controls and treated) were randomly immersed into the warm bath. Both the inside and outside carcass areas were immersed to assure complete coverage. • d) Each separate chill tank water solution (normal tap water adjusted pH to 8.5, ice added to produce temperatures of <45° F.) contained 2×10^3 per mL bacteria. • e) The chill tank water solutions (at least 750 mL each) were be prepared for each disinfecting treatment, and birds were immersed for a period of 1.5 hours. • f) Each 10 minutes during the 1.5 hour chilling period, the birds were completely lifted out of solution and then reimersed in the solution. After the 1.5 hour chilling period, the birds were taken from the chill water and drained for 30 seconds, then promptly (within 5 minutes) placed into a sterile whole bird stomacher bag containing 400 mL diluent (Butterfield's Phosphate Diluent) bacteria collection. • g) Diluent (400 mL) was added to each carcass contained in a sterile stomacher bag while making sure to pour the diluent into the inside of the abdominal cavity. The carcass was rinsed inside and out with a rocking motion for one minute (ca. 35 RPM). […] After the fluids had been diluted, 0.1 mL of fluid was be placed on a MacConkey agar plate and bacteria counts determined. In cases where the goal of a 25-250 count on the plate was not achieved, another dilution and replating were conducted. • j) After all carcasses for each treatment had been dipped, water sample bacteria were determined. • k) Total bacteria per bird were calculated. […]

Assay [2] deals with planktonic HPC (heterotrophic plate count) bacteria. The assay can be described thus: HPC bacteria eradication in planktonic form, PVC sampling pipes. Format: cell-based. From the text: In another group of tests, the results of which are depicted in FIGS. 5 through 10, several bromine-based microbiocides of this invention were utilized in tests illustrating their effectiveness in eradicating or controlling Heterotrophic Plate Count bacteria i.e., a mixture of naturally-occurring pathogenic bacteria of various unidentified species. These bacteria were challenged both in the form of biofilms and in planktonic form.
The experimental conditions utilized in these tests involved use of an apparatus consisting of three parallel transparent PVC sampling pipes. These pipes were used for collection of biofilm (i.e., sessile or surface attached) bacteria samples; one as control pipe, one for a relatively low biocide concentration and the third for a higher biocide concentration. The biocide challenge in each case was divided into three phases. First was a 14-day inoculation. Next was a 48-hour disinfection period. Finally a 2-week recovery period was provided. The biocide under test was slug-dosed and during the first hour of exposure, the concentration was adjusted to achieve the desired concentration level.
The source of the naturally-grown heterotrophic plate count (HPC) bacteria was sediment and associated water collected from the recirculating hot water system of a hospital. […]

Regarding `CC1(C)C(=O)N(Br)C(=O)N1Br` [DBDMH, 1,3-dibromo-5,5-dimethylhydantoin], the “Mean Chill Water Bacteria Reduction (%)” value in assay [1] (50 ppm Cl2 (equivalent)), in assay [1] (100 ppm Cl2 (equivalent)) and in assay [1] (150 ppm Cl2 (equivalent)) was 99.9999% throughout. Further, the “planktonic HPC bacteria eradicated” value is roughly 99% in assay [2] (0.5 ppm as bromine, within three hours) and roughly 99.99% in assay [2] (5 ppm as bromine, within twelve hours).
